# Test results as given in paper PMC12447755, “β-Lactamase cleavable antimicrobial peptide–drug conjugates” (Chemical Science, 2025).
# Read-outs that look alike come from different tables or passages of the source. Where no end group is shown, it is not given here.
# Tests used:
# [1] = system: P. aeruginosa strain PA14; test: microbe, parasite or virus in culture; settings: Pseudomonas aeruginosa
# [2] = system: Serratia marcescens ATCC39006; test: microbe, parasite or virus in culture; settings: ATCC39006, 16 h
# [3] = system: P. aeruginosa strain PAO1
# Escherichia coli DH5a [4] = test: microbe, parasite or virus in culture; settings: 16 h
# [5] = system: P. aeruginosa strain PA14; settings: for MIC for PA14: PA14, 18 h
# [6] = system: Enterococcus faecalis ATCC29212; test: microbe, parasite or virus in culture; settings: ATCC29212, 16 h
# [7] = system: P. aeruginosa strain PAO1; test: microbe, parasite or virus in culture; settings: Pseudomonas aeruginosa, PAO1, 16 h, read-out: MIC for PAO1
# [8] = system: Enterococcus faecalis ATCC29212; settings: ATCC29212, 16 h
# [9] = human serum 100 µL in 400 µL MES buffer (pH 6, 50 mM), 37 °C, protein precipitated with 1:1 DMSO:ethanol, HPLC at 220 nm, caffeine standard; Fig. 5b, values not given
# Escherichia coli DH5a [10] = settings: 16 h
# [11] = system: Methicillin-resistant Staphylococcus aureus MRSA15; settings: Table 4; broth microdilution in MH medium, 37 °C, 16 h
# [12] = system: Burkholderia thailandensis E264; settings: Table 4; broth microdilution in MH medium, 37 °C, 16 h
# [13] = system: Serratia marcescens ATCC39006; settings: ATCC39006, 16 h
# [14] = system: Klebsiella pneumoniae CK1; settings: CK1, 16 h
# [15] = system: PAO1 strain containing plasmid pUCP20, which encodes a β-lactamase; test: MIC determination using broth microdilution method; type: cell-based, Pseudomonas aeruginosa
# P. aeruginosa = test: Drug synergism assay; type: cell-based, Pseudomonas aeruginosa; settings: P2a combined with ciprofloxacin, checkerboard in MH medium, 37 °C, 16 h; synergy threshold 0.5; strain not stated
# Protocol: measured and 15 µL of thiazolyl blue tetrazolium bromide (MTT; 1 mg/mL stock solution in water; Acros) was added to each well of the plate. The MIC was defined as the lowest concentration of the compound with a colourless well indicating no bacterial growth and the results cross-checked with OD600 reading. Each sample was run in triplicate on the same plate. Polymyxin B or ciprofloxacin or both were used as positive controls to ensure comparability of results across different experiments.
# Bacterial culture was quantified by measuring the OD600, medium exchanged to MH-medium and culture diluted to OD600 of 0.022 in MH-medium. Stock solution of compound A was diluted to twice the starting concentration in MH medium. […] The next day, OD600 of the microtiter plate was measured and 15 µL of thiazolyl blue tetrazolium bromide (MTT; 1 mg/mL stock solution in water) was added to each well of the plate to cross-check the OD600 readings. […]
# 150 µL of the solution was added to 96-well plate (3 wells per bacterium) as well as 150 µL of MH medium as a negative control (further 3 wells per bacterium). The media were inoculated with 4 µL of the diluted bacterial solution and incubated in a plate reader at 37◦C for 16 h and absorption at 482 nm (Abs482) and 600 nm (OD600) was continuously measured throughout the incubation. […]
# [16] = system: Pseudomonas aeruginosa strain PAO1; test: Initial susceptibility testing at a fixed concentration; type: cell-based; set-up: key: Tick (✓) represents OD600 comparable to no-growth control; cross (✗) represents OD600 comparable to growth control without any peptide; settings: 256 μg mL−1 of peptide, overnight incubation, OD600 compared with growth and no-growth controls
# [17] = Background stability in PBS buffer; type: physicochemical; settings: PBS buffer pH 7.4 (50 mM), 37 °C, HPLC at 280 nm, Fig. 5a; values not given
Compound,MIC [8],serum stability [9],"MIC for PAO1 ([3]; PAO1, 18 h)",MIC (Escherichia coli DH5a [10]),MIC [11],MIC for PA14 [5],MIC [13],MIC [14],"PA14 MIC ([5]; Table S3, initial MIC values)",also measured
"O=C(O)c1cn(C2CC2)c2cc(N3CCNCC3)c(F)cc2c1=O [Ciprofloxacin, ciprofloxacin]",–,–,–,–,–,–,–,–,–,"MIC ([1]; PA14, 16 h, read-out: MIC for PA14): 0.0625 µg/mL; MIC ([1]; PA14, read-out: MIC for PA14): 0.19 µM; MIC [2]: 0.0625 µg/mL; MIC for PAO1 ([3]; Table 3, data combined from multiple experiments, standard medium): 0.38 µM; PAO1 MIC ([3]; Table S5, altered linking region between peptide and cephalosporin): 0.125 µg/mL; MIC (Escherichia coli DH5a [4]): 0.0078 µg/mL; PA14 MIC ([5]; Table S5): 0.0625 µg/mL; MIC [6]: 0.5 µg/mL; MIC [7]: 0.125 µg/mL"
CC(=O)OCC1=C(C(=O)O)N2C(=O)[C@@H](NC(=O)CCCNc3nc4cc(n3)CCSC[C@H](NC(=O)[C@@H](N)Cc3ccccc3)C(=O)N[C@@H](CCCCN)C(=O)N[C@@H](Cc3c[nH]c5ccccc35)C(=O)N[C@@H](C)C(=O)N[C@@H](Cc3ccccc3)C(=O)N[C@@H](CCCCN)C(=O)N[C@@H](Cc3c[nH]c5ccccc35)C(=O)N[C@H](C(=O)N[C@@H](CCCCN)C(=O)N[C@@H](CCCCN)C(N)=O)CSCC4)[C@H]2SC1 [P2-8],2 µg/mL,improved stability over unstapled P2a,> 33 µM,32 µg/mL,64 µg/mL,> 33 µM,≥ 64 µg/mL,≥ 64 µg/mL,–,MIC [12]: ≥ 64 µg/mL
"FAKWAFKWLKK-NH2 [P2a, reference compound]",≥ 64 µg/mL,–,–,4 µg/mL,32 µg/mL,–,≥ 64 µg/mL,–,32 µg/mL,"cell growth inhibition in strain with plasmid versus without ([15]; OD600 growth curve, triplicate, Fig. 4b): no difference in cell growth inhibition; fractional inhibitory concentration index (P. aeruginosa): 0.75; PAO1 MIC ([3]; PAO1, 18 h): 11 µM; PAO1 MIC ([3]; Table S4, cephalosporin-based staple 8 at different positions): 16 µg/mL; MIC PA14 ([5]; PA14, 16 h): 64 µg/mL; PA14 MIC ([5]; Table S4): 22 µM; Inh (inhibition) [16]: ✗"
C[C@@H]1NC(=O)[C@H](Cc2c[nH]c3ccccc23)NC(=O)[C@H](CCCCN)NC(=O)[C@@H](NC(=O)[C@@H](N)Cc2ccccc2)CSCCc2cc(nc(NCCCC(=O)N[C@@H]3C(=O)N4C(C(=O)O)C(COC(=O)N5CCN(c6cc7c(cc6F)c(=O)c(C(=O)O)cn7C6CC6)CC5)=CS[C@H]34)n2)CCSC[C@@H](C(=O)N[C@@H](CCCCN)C(=O)N[C@@H](CCCCN)C(N)=O)NC(=O)[C@H](Cc2c[nH]c3ccccc23)NC(=O)[C@H](CCCCN)NC(=O)[C@H](Cc2ccccc2)NC1=O (stereo partly drawn) [P2-10],16 µg/mL,improved stability over unstapled P2a,7.0 µM,1 µg/mL,–,7.0 µM,16 µg/mL,≥ 64 µg/mL,16 µg/mL,"background hydrolysis rate mediated by buffer only [17]: significantly lower than when β-lactamase was present; reduction in MIC in PAO1 with plasmid pUCP20 versus PAO1 ([15]; Fig. 4 and Table 3): one half; PAO1 MIC ([3]; Table S3, initial MIC values): 16 µg/mL; MIC for PAO1 after adding β-lactamase ([3]; medium supplemented with 1 nM recombinant β-lactamase): 2 µg/mL"
